ChEMBL document CHEMBL1201862, “PubChem BioAssay data set” (2004)
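How tested: cells in 96-well plates exposed to compound for 48 hours at five concentrations. At the GI50, growth is halved.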 Active and inactive are the calls of the source. Rule as the data show it: active = GI50 up to about 1.1 µM and inactive = higher.

Legend:
Assay in all cases: DTP human tumour cell line panel, 48 h
M14 = system: M14
OVCAR-8 = system: OVCAR-8
HOP-62 = system: HOP-62
SK-MEL-28 = system: SK-MEL-28
OVCAR-5 = system: OVCAR-5
A549 = system: A549
T47D = system: T47D
NCI-H226 = system: NCI-H226
MDA-MB-231 = system: MDA-MB-231
SK-MEL-2 = system: SK-MEL-2
OVCAR-3 = system: OVCAR-3
RPMI-8226 = system: RPMI-8226
SF-268 = system: SF-268
SK-OV-3 = system: SK-OV-3
SK-MEL-5 = system: SK-MEL-5
CAKI-1 = system: CAKI-1
786-0 = system: 786-0
HOP-92 = system: HOP-92
SF-539 = system: SF-539
HCT-15 = system: HCT-15
EKVX = system: EKVX
MOLT-4 = system: MOLT-4
HCT-116 = system: HCT-116
SN12C = system: SN12C
OVCAR-4 = system: OVCAR-4
U-251 = system: U-251
SW-620 = system: SW-620
IGROV-1 = system: IGROV-1
BT-549 = system: BT-549
Hs-578T = system: Hs-578T
MDA-MB-435 = system: MDA-MB-435
COLO 205 = system: COLO 205
UACC-257 = system: UACC-257
UO-31 = system: UO-31
NCI/ADR-RES = system: NCI/ADR-RES
PC-3 = system: PC-3
CCRF-CEM = system: CCRF-CEM
DU-145 = system: DU-145
LOX IMVI = system: LOX IMVI
HL-60 = system: HL-60
SF-295 = system: SF-295
NCI-H522 = system: NCI-H522
SR = system: SR
NCI-H460 = system: NCI-H460
NCI-H23 = system: NCI-H23
Malme-3M = system: Malme-3M
HT-29 = system: HT-29
MCF7 = system: MCF7
ACHN = system: ACHN
UACC-62 = system: UACC-62
K562 = system: K562
RXF 393 = system: RXF 393
SNB-75 = system: SNB-75
TK-10 = system: TK-10
SNB-19 = system: SNB-19
HCC 2998 = system: HCC 2998
A498 = system: A498
KM12 = system: KM12

## COc1ccc(Cc2coc3ccccc3c2=O)cc1OC
M14
  GI50: 53.8 µM (inactive)
OVCAR-8
  GI50: > 100 µM (inactive)
HOP-62
  GI50: 56.1 µM (inactive)
SK-MEL-28
  GI50: > 100 µM (inactive)
OVCAR-5
  GI50: > 100 µM (inactive)
A549
  GI50: > 100 µM (inactive)
T47D
  GI50: 33.2 µM (inactive)
NCI-H226
  GI50: 94 µM (inactive)
MDA-MB-231
  GI50: 99.1 µM (inactive)
SK-MEL-2
  GI50: > 100 µM (inactive)
OVCAR-3
  GI50: 78 µM (inactive)
RPMI-8226
  GI50: 33.3 µM (inactive)
SF-268
  GI50: > 100 µM (inactive)
SK-OV-3
  GI50: > 100 µM (inactive)
SK-MEL-5
  GI50: 21.3 µM (inactive)
CAKI-1
  GI50: 11.6 µM (inactive)
786-0
  GI50: > 100 µM (inactive)
HOP-92
  GI50: > 100 µM (inactive)
SF-539
  GI50: 42.8 µM (inactive)
HCT-15
  GI50: 31.8 µM
EKVX
  GI50: 40.6 µM (inactive)
MOLT-4
  GI50: 49.3 µM (inactive)
HCT-116
  GI50: 45.7 µM (inactive)
SN12C
  GI50: > 100 µM (inactive)
OVCAR-4
  GI50: 28.4 µM (inactive)
U-251
  GI50: 72.1 µM (inactive)
SW-620
  GI50: > 100 µM (inactive)
IGROV-1
  GI50: > 100 µM (inactive)
BT-549
  GI50: 38 µM (inactive)
Hs-578T
  GI50: 56.6 µM (inactive)
MDA-MB-435
  GI50: 79.4 µM (inactive)
COLO 205
  GI50: > 100 µM (inactive)
UACC-257
  GI50: 59.2 µM (inactive)
UO-31
  GI50: 38.5 µM (inactive)
NCI/ADR-RES
  GI50: 36.1 µM (inactive)
PC-3
  GI50: 93.5 µM (inactive)
CCRF-CEM
  GI50: > 100 µM (inactive)
DU-145
  GI50: > 100 µM (inactive)
LOX IMVI
  GI50: 49.9 µM (inactive)
HL-60
  GI50: 86.5 µM (inactive)
SF-295
  GI50: 47.2 µM (inactive)
NCI-H522
  GI50: 43.5 µM (inactive)
SR
  GI50: 61.1 µM (inactive)
NCI-H460
  GI50: 68.1 µM (inactive)
NCI-H23
  GI50: 28.3 µM (inactive)
Malme-3M
  GI50: > 100 µM (inactive)
HT-29
  GI50: > 100 µM (inactive)
MCF7
  GI50: 46.2 µM (inactive)
ACHN
  GI50: 72.4 µM (inactive)
UACC-62
  GI50: > 100 µM (inactive)
K562
  GI50: 72.6 µM (inactive)
RXF 393
  GI50: 52.4 µM (inactive)
SNB-75
  GI50: > 100 µM (inactive)
TK-10
  GI50: > 100 µM (inactive)
SNB-19
  GI50: > 100 µM (inactive)

## O=C(CC(c1ccccc1)C(C(=O)c1ccncc1)C(CC(=O)c1ccncc1)c1ccccc1)c1ccncc1 (stereo unspecified)
M14
  GI50: > 100 µM (inactive)
OVCAR-8
  GI50: 35.6 µM (inactive)
HOP-62
  GI50: 44.5 µM (inactive)
SK-MEL-28
  GI50: > 100 µM (inactive)
OVCAR-5
  GI50: > 100 µM (inactive)
A549
  GI50: 26.7 µM (inactive)
T47D
  GI50: 29.4 µM (inactive)
NCI-H226
  GI50: 38.5 µM (inactive)
MDA-MB-231
  GI50: 31.6 µM (inactive)
SK-MEL-2
  GI50: 78.7 µM (inactive)
OVCAR-3
  GI50: 75.9 µM (inactive)
RPMI-8226
  GI50: > 100 µM (inactive)
SF-268
  GI50: 32.4 µM (inactive)
SK-OV-3
  GI50: 29.2 µM (inactive)
SK-MEL-5
  GI50: > 10 µM (inactive)
CAKI-1
  GI50: > 100 µM (inactive)
786-0
  GI50: 68.2 µM (inactive)
HOP-92
  GI50: 48.3 µM (inactive)
HCC 2998
  GI50: > 100 µM (inactive)
HCT-15
  GI50: > 100 µM
EKVX
  GI50: 34.6 µM (inactive)
MOLT-4
  GI50: > 100 µM (inactive)
HCT-116
  GI50: > 100 µM (inactive)
OVCAR-4
  GI50: > 10 µM (inactive)
U-251
  GI50: 42.8 µM (inactive)
SW-620
  GI50: > 100 µM (inactive)
IGROV-1
  GI50: 28.4 µM (inactive)
BT-549
  GI50: 18.5 µM (inactive)
Hs-578T
  GI50: 30 µM (inactive)
A498
  GI50: 71.8 µM (inactive)
MDA-MB-435
  GI50: > 100 µM (inactive)
COLO 205
  GI50: > 100 µM (inactive)
UACC-257
  GI50: > 100 µM (inactive)
UO-31
  GI50: > 100 µM (inactive)
NCI/ADR-RES
  GI50: 49.3 µM (inactive)
PC-3
  GI50: 46.2 µM (inactive)
CCRF-CEM
  GI50: > 100 µM (inactive)
DU-145
  GI50: 96.6 µM (inactive)
LOX IMVI
  GI50: > 100 µM (inactive)
HL-60
  GI50: > 100 µM (inactive)
SF-295
  GI50: 29.8 µM (inactive)
SR
  GI50: > 100 µM (inactive)
NCI-H460
  GI50: 89.5 µM (inactive)
NCI-H23
  GI50: 35 µM (inactive)
Malme-3M
  GI50: > 100 µM (inactive)
HT-29
  GI50: > 100 µM (inactive)
KM12
  GI50: > 100 µM (inactive)
ACHN
  GI50: 70 µM (inactive)
UACC-62
  GI50: 86.1 µM (inactive)
SNB-75
  GI50: 23.7 µM (inactive)
TK-10
  GI50: 47.5 µM (inactive)
SNB-19
  GI50: 39 µM (inactive)

## CC(C)(C)c1ccc(O)c(C(O)c2cccnc2)c1 (stereo unspecified)
OVCAR-8
  GI50: > 100 µM (inactive)
HOP-62
  GI50: > 100 µM (inactive)
SK-MEL-28
  GI50: > 100 µM (inactive)
OVCAR-5
  GI50: > 100 µM (inactive)
A549
  GI50: > 100 µM (inactive)
T47D
  GI50: 5.87 µM (inactive)
NCI-H226
  GI50: > 100 µM (inactive)
MDA-MB-231
  GI50: > 100 µM (inactive)
OVCAR-3
  GI50: > 100 µM (inactive)
SF-268
  GI50: > 100 µM (inactive)
SK-MEL-5
  GI50: 35 µM (inactive)
CAKI-1
  GI50: > 100 µM (inactive)
786-0
  GI50: > 100 µM (inactive)
HCC 2998
  GI50: 76 µM (inactive)
SF-539
  GI50: > 100 µM (inactive)
HCT-15
  GI50: 72.1 µM
EKVX
  GI50: > 100 µM (inactive)
MOLT-4
  GI50: > 100 µM (inactive)
HCT-116
  GI50: > 100 µM (inactive)
SW-620
  GI50: > 100 µM (inactive)
IGROV-1
  GI50: > 100 µM (inactive)
BT-549
  GI50: > 100 µM (inactive)
Hs-578T
  GI50: > 100 µM (inactive)
COLO 205
  GI50: > 100 µM (inactive)
UO-31
  GI50: > 100 µM (inactive)
NCI/ADR-RES
  GI50: 94.6 µM (inactive)
CCRF-CEM
  GI50: 96.6 µM (inactive)
DU-145
  GI50: > 100 µM (inactive)
NCI-H522
  GI50: > 100 µM (inactive)
NCI-H460
  GI50: > 100 µM (inactive)
NCI-H23
  GI50: > 100 µM (inactive)
Malme-3M
  GI50: > 100 µM (inactive)
HT-29
  GI50: > 100 µM (inactive)
KM12
  GI50: > 100 µM (inactive)
ACHN
  GI50: > 100 µM (inactive)
UACC-62
  GI50: 16.6 µM (inactive)
K562
  GI50: 81.5 µM (inactive)
RXF 393
  GI50: > 100 µM (inactive)
SNB-75
  GI50: 57 µM (inactive)
